Our source for the solubility and Activity values is ChEMBL document CHEMBL1141387, “Molecular-docking-guided design, synthesis, and biologic evaluation of radioiodinated quinazolinone prodrugs” (J Med Chem, 2007).

Data set [1] in a line: Solubility in phosphate buffer by radiotracer analysis method. It counts as physicochemical.
Data set [2] can be described thus: PLAP-mediated conversion of prodrug to drug. It counts as ADME.
Data set [3] can be described thus: Aqueous solubility by radiotracer analysis method. In kind it is physicochemical. The following applies: buffer.

≈ marks a conversion by molar mass, not a printed value.

`N.N.N.N.O=P(O)(O)Oc1ccc(-c2nc(O)c3cc([127I])ccc3n2)c(OP(=O)(O)O)c1`: in data set [1], the solubility worked out at 4350 µg/mL. Further, in data set [2], the result was Active.
Turning to `O=c1[nH]c(-c2ccc(O)cc2O)nc2ccc([127I])cc12`, in data set [3], the solubility came out at 0.00968 µg/mL (≈ 0.0255 µM).
With `N.N.N.N.O=c1[nH]c(-c2ccc(OP(=O)(O)O)cc2OP(=O)(O)O)nc2ccc([125I])cc12`, the result in data set [2] was Active.
